From publication PMC7876453, “Targeting Indoleamine 2,3-Dioxygenase in Cancer Models Using the Novel Small Molecule Inhibitor NTRC 3883-0” (Frontiers in Immunology, 2021)

Legend:
[1] = plasma protein binding, dog; type: in vitro ADME
Protocol: (§1) Supplement DataSheet_1.docx, table 2: Table S2. Pharmacokinetic parameters of NTRC 3883-0 observed in mouse, rat, monkey and dog, and predicted for humans using allometric scaling. Data in bold are measured, while data in italics are calculated or predicted (for humans). The clearance (Cl) and volume of distribution at steady state (Vss | column: Dog

[2] = target: T1, mIDO1 (Mus musculus, UniProt P28776); assay: mouse IDO1 biochemical assay (NFK GreenScreen)
T1 construct: Full-length recombinant human and mouse IDO1 were expressed in Escherichia coli with a hexahistidine tag at the N-terminus; hexahistidine (N); made in house; host or cells: Escherichia coli

[3] = in vivo pharmacokinetics, mouse; parameters: species or system male CD-1 mice; details: male; for clearance / Vd: intravenous; for Vd: read-out: Vss
Protocol: (§2) Pharmacokinetic properties of NTRC 3883-0 were determined in plasma following single oral (p.o.) and i.v. administration to male CD-1 mice (n = 6 per treatment group with three mice sampled per time point), Wistar rats (n = 3), cynomolgus monkey (n = 1) and Beagle dogs (n = 3). Formulations were prepared in DMSO, Kolliphor® EL, 5% D-mannitol in Elix water at a volume ratio of 1:1:8 for i.v. administration, and in 0.5% gelatin, 5% D-mannitol in Elix water for p.o. administration. Plasma samples were collected at eight to eleven time points up to 24 h after administration. Pharmacokinetic properties and required dosing in humans were predicted by allometric scaling by Karin Jorga Life Science Consulting (Basel, Switzerland) ( Figure S2 and Table S2 ).

[4] = target: B16F10-mIDO1 (Mus musculus, UniProt P28776); assay: cell-based assay, Trp-catabolizing activity in B16F10-mIDO1 cells
[5] = target: T2, CYP2D6 (Homo sapiens, UniProt P10635); assay: CYP2D6 inhibition (P450-Glo); type: in vitro ADME; details: 10 µM
T2 construct: purchased Promega V9890
Protocol: Full-length recombinant human and mouse IDO1 were expressed in Escherichia coli with a hexahistidine tag at the N-terminus, and purified by affinity chromatography to > 95% purity, as described ([8]). Human and mouse TDO containing a C-terminal hexahistidine tag were analogously expressed and purified to > 95% purity ([8]). The inhibitory activity of compounds was determined with the NFK GreenScreen assay technology under the conditions as described ([8]), except for the reaction buffer for IDO1, which was replaced by 50 mM NaH2PO4, pH 7.0, supplemented with 0.01% Tween-20 and 1% glycerol. Inhibition of the CYP3A4 and CYP2D6 enzymes was determined with the P450-Glo™ Screening System with Luciferin-IPA (Promega, #V9920 and V9890). For determination of IC50 values, the effect of inhibitors was determined in 10-point duplicate dose-response curves. Graphs were fitted to a four-parameter logistics equation in XLfit (ID Business Solutions, Ltd., Guildford, UK) from which IC50 values were calculated.

[6] = target: HEK-hTDO (Homo sapiens, UniProt P48775); assay: cell-based assay, Trp-catabolizing activity in HEK-hTDO cells
[7] = plasma protein binding, rat; type: in vitro ADME
Protocol: as §1, with “Rat” for “Dog”

[8] = target: T3, hWB + IFNγ (hIDO1) (Homo sapiens, UniProt P14902); assay: human whole blood assay, Trp-catabolizing activity after IFNγ stimulation; type: cell-based; details: human whole blood from healthy donors
T3 construct: from tissue; host or cells: heparinized human whole blood from healthy donors, IFNγ-stimulated

[9] = tested on: cell lines used in this study; assay: cell viability assays (ATPlite 1Step); details: in parallel with the cell-based assays
[10] = target: HEK-hIDO1 (Homo sapiens, UniProt P14902); assay: cell-based assay, Trp-catabolizing activity in HEK-hIDO1 cells
[11] = tested on: panel of 44 pharmacologically relevant receptors, ion channels, transporters and enzymes; assay: Eurofins-CEREP selectivity panel; details: 10 µM
[12] = tested on: B16F10-mIDO1 subline j19 in female B6D2F1 mice; assay: B16F10-mIDO1 syngeneic mouse model, intervention study; type: in vivo
Text: For development of the mIDO1-overexpressing B16F10 mouse model, performed at Charles River Laboratories, female B6D2F1 mice were implanted subcutaneously with 1 × 10^6 parental B16F10 cells or B16F10-mIDO1 cells (subline i6 or j19) on day 0 with n = 10 mice per group. A tumor volume of 2000 mm^3 was used as the endpoint of the experiment for the individual animals. To determine the optimal inoculation cell concentration, mice were implanted with 3 × 10^5, 1 × 10^5 or 3 × 10^4 parental or mIDO1-overexpressing B16F10 cells (subline j19) with n = 5 mice per group. The same endpoint of the experiment was used as described above. […] For the intervention study, 3 x 10^5 cells of the B16F10-mIDO1 subline j19 were implanted on day 0, and treatment was started on day 3 with vehicle (DMSO, Kolliphor, 5% mannitol; […]. Four animals were excluded from analysis due to non-treatment-related deaths. Tumors and plasma were sampled 2 h post last dose.
[…]. After centrifugation, proteins were removed from the homogenized tissue supernatants and plasma samples by precipitation with methanol. The concentrations of inhibitor, Trp and Kyn were determined by LC-MS/MS.

[13] = in vivo pharmacokinetics, rat; parameters: species or system Wistar rats; details: Wistar, plasma; for clearance / Vd: intravenous; for Vd: read-out: Vss
Protocol: as §2

[14] = target: T4, A375 + IFNγ (hIDO1) (Homo sapiens, UniProt P14902); assay: cell-based assay, Trp-catabolizing activity in IFNγ-stimulated A375 cells; details: IFNγ-stimulated A375 human melanoma cells
T4 construct: host or cells: A375 cells stimulated with IFNγ

[15] = tested on: dog whole blood; assay: dog whole blood assay; type: cell-based; details: Canis lupus familiaris
[16] = CD-1, plasma, mouse, body weight 0.036 kg
[17] = 100 mg/kg p.o. b.i.d. from day 3
[18] = 100 mg/kg p.o. b.i.d., 2 h post last dose

Sequence of B16F10-mIDO1 (P28776 whole entry, one chain of several): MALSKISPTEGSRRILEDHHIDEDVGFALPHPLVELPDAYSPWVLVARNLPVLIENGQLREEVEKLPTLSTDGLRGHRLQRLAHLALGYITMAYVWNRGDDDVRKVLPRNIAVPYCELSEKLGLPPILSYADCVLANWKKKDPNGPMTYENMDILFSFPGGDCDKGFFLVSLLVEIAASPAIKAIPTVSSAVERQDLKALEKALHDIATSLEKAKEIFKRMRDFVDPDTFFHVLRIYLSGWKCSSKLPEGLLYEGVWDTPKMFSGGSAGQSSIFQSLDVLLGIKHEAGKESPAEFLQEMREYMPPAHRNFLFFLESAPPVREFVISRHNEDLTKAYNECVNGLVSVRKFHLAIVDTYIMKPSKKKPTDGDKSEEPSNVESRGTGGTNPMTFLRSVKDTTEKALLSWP
Sequence of HEK-hTDO (P48775 whole entry): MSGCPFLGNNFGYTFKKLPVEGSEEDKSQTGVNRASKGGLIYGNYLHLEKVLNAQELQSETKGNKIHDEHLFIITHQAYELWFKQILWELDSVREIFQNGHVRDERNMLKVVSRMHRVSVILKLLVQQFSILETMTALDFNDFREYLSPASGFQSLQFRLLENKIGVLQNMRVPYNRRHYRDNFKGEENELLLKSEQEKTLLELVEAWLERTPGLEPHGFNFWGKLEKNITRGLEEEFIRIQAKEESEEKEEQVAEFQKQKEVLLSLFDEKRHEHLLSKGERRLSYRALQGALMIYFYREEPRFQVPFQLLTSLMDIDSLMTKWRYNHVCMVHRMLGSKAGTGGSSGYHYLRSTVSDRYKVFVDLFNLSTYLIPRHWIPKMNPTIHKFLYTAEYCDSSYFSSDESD
T1 sequence (P28776 whole entry): as the sequence (P28776 whole entry, one chain of several) above
Sequence of HEK-hIDO1 (P14902 whole entry): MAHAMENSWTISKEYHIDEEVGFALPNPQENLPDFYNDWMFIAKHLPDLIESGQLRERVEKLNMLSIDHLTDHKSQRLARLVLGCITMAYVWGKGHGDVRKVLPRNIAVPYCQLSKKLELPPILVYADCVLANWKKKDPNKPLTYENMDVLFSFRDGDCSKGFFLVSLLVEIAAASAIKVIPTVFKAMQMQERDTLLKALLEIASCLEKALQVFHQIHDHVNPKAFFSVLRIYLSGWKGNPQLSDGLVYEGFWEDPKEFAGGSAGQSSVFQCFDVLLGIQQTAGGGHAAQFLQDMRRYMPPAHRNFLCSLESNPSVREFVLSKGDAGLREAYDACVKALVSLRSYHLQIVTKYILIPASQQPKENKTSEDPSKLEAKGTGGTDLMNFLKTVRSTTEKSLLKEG
T4 sequence (P14902 whole entry): as above
T3 sequence (P14902 whole entry): as above
T2 sequence (P10635 whole entry): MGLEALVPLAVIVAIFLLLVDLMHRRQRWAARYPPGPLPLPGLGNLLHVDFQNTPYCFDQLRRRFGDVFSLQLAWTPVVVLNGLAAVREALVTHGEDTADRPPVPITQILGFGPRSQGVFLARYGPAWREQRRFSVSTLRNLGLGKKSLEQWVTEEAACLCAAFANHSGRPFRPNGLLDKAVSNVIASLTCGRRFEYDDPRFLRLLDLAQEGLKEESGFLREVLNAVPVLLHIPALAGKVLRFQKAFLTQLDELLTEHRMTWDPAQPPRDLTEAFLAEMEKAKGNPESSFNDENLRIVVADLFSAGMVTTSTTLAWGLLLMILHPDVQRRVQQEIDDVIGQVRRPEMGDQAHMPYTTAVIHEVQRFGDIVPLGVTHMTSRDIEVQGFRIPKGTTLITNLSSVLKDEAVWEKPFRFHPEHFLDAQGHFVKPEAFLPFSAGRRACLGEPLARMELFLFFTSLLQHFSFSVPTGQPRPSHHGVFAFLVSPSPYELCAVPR

O=C1CN(C(=O)c2c(F)cccc2F)[C@H](c2cccc(Br)c2)N1O [NTRC 3883-0]
fraction unbound [1]: 0.21
IC50 [2]: 93 nM
half-life ([3]; CD-1, mouse, plasma): 5.2 h
clearance ([3]; CD-1, mouse, plasma): 18.5 mL/min/kg
Vd ([3]; CD-1, mouse, plasma): 3.63 L/kg
clearance [3, 16]: 0.667 mL/min
Vd [3, 16]: 0.131 L
IC50 [4]: 18 nM
times more potent compared to epacadostat in B16F10-mIDO1 assay [4]: 5 times
inhibition of CYP2D6 activity [5]: did not inhibit
effect on Trp-catabolizing activity in HEK-hTDO cells (in words) [6]: no effect
inhibition at 31.6 µM ([6]; read-out: inhibition HEK-hTDO): < 20%
fraction unbound [7]: 0.15
IC50 [8]: 378 nM
cytotoxicity [9]: not cytotoxic
IC50 [10]: 119 nM
cross-reactivities in panel of 44 targets [11]: no cross-reactivities
times lower intratumoral levels of Kyn compared to epacadostat ([12]; 100 mg/kg p.o. b.i.d.): 3.6 times
tumor growth corrected for the variation in time until tumor establishment [12, 17]: delay in tumor growth
tumor growth in comparison to vehicle-treated animals [12, 17]: no effect
times lower inhibitor level in plasma compared to epacadostat [12, 18]: 1.8 times
times lower inhibitor level in the tumors compared to epacadostat [12, 18]: 2.2 times
intratumoral Trp levels ([12]; 100 mg/kg p.o. b.i.d., LC-MS/MS): slightly more efficient in increasing Trp
half-life [13]: 3.3 h
clearance [13]: 19.1 mL/min/kg
clearance ([13]; body weight 0.29 kg): 5.52 mL/min
Vd ([13]; body weight 0.29 kg): 0.417 L
Vd [13]: 1.43 L/kg
bioavailability ([13]; po, p.o. versus i.v., read-out: Bioavailability (F)): 91%
IC50 [14]: 182 nM
IC90 [15]: 1000 nM
